Test results taken from paper PMC10285738, “Identification of macrocyclic peptides which activate bacterial cylindrical proteases” (RSC Medicinal Chemistry, 2023).
Starred links: 1 amine or outer side, 2 acyl side, 3 side chain; linkers in the order of their positions; H or OH if unused. Positions of bridges follow the written chain, without caps; N, C: chain ends. Non-standard residues stand in square brackets, D forms with d. Residues, ends and D or L forms follow the SMILES beside them. Phe(3,5-F2) = N[C@@H](Cc1cc(F)cc(F)c1)C(=O)O; CH2COCH2 = O=C(C[*:1])C[*:2]

Experiments:
[1] = two-component Cys/Cys stapling: bis-thiol-Michael addition to 4,6-divinylpyrimidine bearing N-methylglycine (constraint 1 = A), 1.1 equiv; TCEP 1.1 equiv added if the peptide had oxidised; settings: the molecule shown is the open-chain precursor, 100 mM phosphate buffer pH 7.4 with DMSO from peptide and staple stocks, 2.8 mM, 22.0 °C, 2 steps
[2] = two-component Cys/Cys stapling: bis-thioether alkylation with 1,3-dichloroacetone (B), 1.1 equiv; TCEP 1.1 equiv added if the peptide had oxidised; settings: the molecule shown is the open-chain precursor, 100 mM phosphate buffer pH 7.4 with DMSO (peptide stock) and MeCN (staple stock), 2.7 mM, 22.0 °C, 2 steps
Sa.ClpP = target: T1, Sa.ClpP (Staphylococcus aureus, UniProt Q2G036); assay: Thermal shift assay (differential scanning fluorimetry); assay type: binding; settings: S. aureus ClpP 5 µM, ligand 200 µM, HEPES 100 mM pH 7, NaCl 150 mM, sypro orange 5x, 30-90 °C in 0.5 °C increments; mean ± SD of duplicates of at least two independent experiments
T1 construct: Strep-tag (C); made in house; host or cells: E. coli SG1146a (lacks endogenous ClpP)
From the text: All concentrations are given as final concentrations. […]
real-time qPCR (Bio-Rad CF X96).
SD of duplicates of at least two independent experiments.
equilibrated Superdex 200 Increase 10/300 GL column (Cytiva). […]

T1 sequence (Q2G036 whole entry): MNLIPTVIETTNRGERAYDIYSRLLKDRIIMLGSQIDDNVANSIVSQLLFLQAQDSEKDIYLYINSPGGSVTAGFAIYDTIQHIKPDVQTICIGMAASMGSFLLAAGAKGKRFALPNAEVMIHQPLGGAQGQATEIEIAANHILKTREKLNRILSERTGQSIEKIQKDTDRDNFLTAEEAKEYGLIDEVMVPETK

With `C=Cc1cc(CCSC[C@H](NC(C)=O)C(=O)NCC(=O)N[C@H](C(=O)NCC(=O)N[C@@H](C)C(=O)NCC(=O)N[C@@H](CS)C(N)=O)[C@@H](C)CC)nc(N(C)CC(=O)O)n1` [Ac-Cys-Gly-Ile-Gly-Ala-Gly-Cys-NH2] the ring closure, yield over several steps ([1]; 30-membered ring) was 90.6%.
In the case of `CC[C@H](C)[C@H](NC(=O)CNC(=O)[C@H](CSCC(=O)CCl)NC(C)=O)C(=O)NCC(=O)N[C@@H](C)C(=O)NCC(=O)N[C@@H](CS)C(N)=O` [Ac-Cys-Gly-Ile-Gly-Ala-Gly-Cys-NH2], the ring closure, yield over several steps ([2]; 26-membered ring) is reported as 18.4%.
Work on `C=Cc1cc(CCSC[C@H](NC(C)=O)C(=O)NCC(=O)N[C@H](C(=O)NCC(=O)N[C@H](Cc2ccccc2)C(=O)NCC(=O)N[C@@H](CS)C(N)=O)[C@@H](C)CC)nc(N(C)CC(=O)O)n1` [Ac-Cys-Gly-Ile-Gly-D-Phe-Gly-Cys-NH2] yielded a ring closure, yield over several steps ([1]; 30-membered ring) of 61%.
`CC[C@H](C)[C@H](NC(=O)CNC(=O)[C@H](CSCC(=O)CCl)NC(C)=O)C(=O)NCC(=O)N[C@H](Cc1ccccc1)C(=O)NCC(=O)N[C@@H](CS)C(N)=O` [Ac-Cys-Gly-Ile-Gly-D-Phe-Gly-Cys-NH2] showed a ring closure, yield over several steps ([2]; 26-membered ring) of 46.6%.
Work on `C=Cc1cc(CCSC[C@H](NC(C)=O)C(=O)NCC(=O)N[C@H](C(=O)NCC(=O)N[C@@H](Cc2cc(F)cc(F)c2)C(=O)NCC(=O)N[C@@H](CS)C(N)=O)[C@@H](C)CC)nc(N(C)CC(=O)O)n1` [Ac-Cys-Gly-Ile-Gly-Phe(3,5-F2)-Gly-Cys-NH2] yielded a ring closure, yield over several steps ([1]; 30-membered ring) of 14.1%.
Compound `CC[C@H](C)[C@H](NC(=O)CNC(=O)[C@H](CSCC(=O)CCl)NC(C)=O)C(=O)NCC(=O)N[C@@H](Cc1cc(F)cc(F)c1)C(=O)NCC(=O)N[C@@H](CS)C(N)=O` [Ac-Cys-Gly-Ile-Gly-Phe(3,5-F2)-Gly-Cys-NH2] has a ring closure, yield over several steps ([2]; 26-membered ring) of 43.3%.
For `C=Cc1cc(CCSC[C@H](NC(C)=O)C(=O)NCC(=O)N[C@H](C(=O)NCC(=O)N[C@@H](Cc2ccccc2)C(=O)NCC(=O)N[C@@H](C)C(=O)N[C@@H](CS)C(N)=O)[C@@H](C)CC)nc(N(C)CC(=O)O)n1` [Ac-Cys-Gly-Ile-Gly-Phe-Gly-Ala-Cys-NH2], the ring closure, yield over several steps ([1]; 33-membered ring) was 46.2%.
For `CC[C@H](C)[C@H](NC(=O)CNC(=O)[C@H](CSCC(=O)CCl)NC(C)=O)C(=O)NCC(=O)N[C@@H](Cc1ccccc1)C(=O)NCC(=O)N[C@@H](C)C(=O)N[C@@H](CS)C(N)=O` [Ac-Cys-Gly-Ile-Gly-Phe-Gly-Ala-Cys-NH2], the ring closure, yield over several steps ([2]; 29-membered ring) was 48.3%.
`C=Cc1cc(CCSC[C@H](NC(C)=O)C(=O)NCC(=O)N[C@H](C(=O)NCC(=O)N[C@@H](Cc2ccccc2)C(=O)NCC(=O)N[C@@H](C)C(=O)N[C@H](C(=O)N[C@@H](CS)C(N)=O)[C@@H](C)O)[C@@H](C)CC)nc(N(C)CC(=O)O)n1` [Ac-Cys-Gly-Ile-Gly-Phe-Gly-Ala-Thr-Cys-NH2] showed a ring closure, yield over several steps ([1]; 36-membered ring) of 34.3%.
In the case of `CC[C@H](C)[C@H](NC(=O)CNC(=O)[C@H](CSCC(=O)CCl)NC(C)=O)C(=O)NCC(=O)N[C@@H](Cc1ccccc1)C(=O)NCC(=O)N[C@@H](C)C(=O)N[C@H](C(=O)N[C@@H](CS)C(N)=O)[C@@H](C)O` [Ac-Cys-Gly-Ile-Gly-Phe-Gly-Ala-Thr-Cys-NH2], the ring closure, yield over several steps ([2]; 32-membered ring) is reported as 19%.
In the case of `C=Cc1cc(CCSC[C@H](NC(C)=O)C(=O)NCC(=O)N[C@H](C(=O)NCC(=O)N[C@@H](Cc2ccccc2)C(=O)NCC(=O)N[C@@H](CS)C(N)=O)[C@@H](C)CC)nc(N(C)CC(=O)O)n1` [Ac-Cys-Gly-Ile-Gly-Phe-Gly-Cys-NH2], the ring closure, yield over several steps ([1]; 30-membered ring) is reported as 6.8%.
Compound `CC[C@H](C)[C@H](NC(=O)CNC(=O)[C@H](CSCC(=O)CCl)NC(C)=O)C(=O)NCC(=O)N[C@@H](Cc1ccccc1)C(=O)NCC(=O)N[C@@H](CS)C(N)=O` [Ac-Cys-Gly-Ile-Gly-Phe-Gly-Cys-NH2] has a ring closure, yield over several steps ([2]; 26-membered ring) of 27.3%.
Work on `C=Cc1cc(CCSC[C@H](NC(C)=O)C(=O)N[C@H](C(=O)NCC(=O)N[C@@H](Cc2ccccc2)C(=O)NCC(=O)N[C@@H](C)C(=O)N[C@@H](CS)C(N)=O)[C@@H](C)CC)nc(N(C)CC(=O)O)n1` [Ac-Cys-Ile-Gly-Phe-Gly-Ala-Cys-NH2] yielded a ring closure, yield over several steps ([1]; 30-membered ring) of 25.7%.
Compound `CC[C@H](C)[C@H](NC(=O)[C@H](CSCC(=O)CCl)NC(C)=O)C(=O)NCC(=O)N[C@@H](Cc1ccccc1)C(=O)NCC(=O)N[C@@H](C)C(=O)N[C@@H](CS)C(N)=O` [Ac-Cys-Ile-Gly-Phe-Gly-Ala-Cys-NH2] has a ring closure, yield over several steps ([2]; 26-membered ring) of 13.5%.
Work on `C=Cc1cc(CCSC[C@H](NC(C)=O)C(=O)N[C@H](C(=O)NCC(=O)N[C@@H](Cc2ccccc2)C(=O)NCC(=O)N[C@@H](C)C(=O)N[C@H](C(=O)N[C@@H](CS)C(N)=O)[C@@H](C)O)[C@@H](C)CC)nc(N(C)CC(=O)O)n1` [Ac-Cys-Ile-Gly-Phe-Gly-Ala-Thr-Cys-NH2] yielded a ring closure, yield over several steps ([1]; 33-membered ring) of 20.5%.
`CC[C@H](C)[C@H](NC(=O)[C@H](CSCC(=O)CCl)NC(C)=O)C(=O)NCC(=O)N[C@@H](Cc1ccccc1)C(=O)NCC(=O)N[C@@H](C)C(=O)N[C@H](C(=O)N[C@@H](CS)C(N)=O)[C@@H](C)O` [Ac-Cys-Ile-Gly-Phe-Gly-Ala-Thr-Cys-NH2] gave a ring closure, yield over several steps ([2]; 29-membered ring) of 55.3%.
In the case of `C=Cc1cc(CCSC[C@H](NC(C)=O)C(=O)N[C@H](C(=O)NCC(=O)N[C@@H](Cc2ccccc2)C(=O)NCC(=O)N[C@@H](CS)C(N)=O)[C@@H](C)CC)nc(N(C)CC(=O)O)n1` [Ac-Cys-Ile-Gly-Phe-Gly-Cys-NH2], the ring closure, yield over several steps ([1]; 27-membered ring) is reported as 75.6%.
In the case of `CC[C@H](C)[C@@H]1NC(=O)CNC(=O)[C@@H](NC(C)=O)CSCC(=O)CSC[C@@H](C(N)=O)NC(=O)CNC(=O)[C@H](Cc2cc(F)cc(F)c2)NC(=O)CNC1=O` [P9-B] (Ac-CGIG[Phe(3,5-F2)]GC-NH2; linker 1-7 via CH2COCH2), the “apparent increase in melting temperature of Sa.ClpP” value (Sa.ClpP) is reported as 1.1 ± 0.2 °C.
